Measurements: patent publication US20090291857A1, “METHODS TO IDENTIFY INHIBITORS OF THE UNFOLDED PROTEIN RESPONSE” (THE BOARD OF TRUSTEES OF THE LELAND STANFORD JUNIOR …, priority 2006, published 2009)
Read-outs that look alike come from different tables or passages of the source.

Columns and labels:
[1] = test system: IRE1α/XBP-1 pathway (XBP1-luciferase reporter); experiment: High throughput XBP-luciferase reporter screen, tunicamycin/thapsigargin induced (HTS and IRE IC50); format: cell-based, human; settings: Homo sapiens; for inhibition at 20 µM: Conc 20 uM
Procedure: Specifically, HT1080 fibrosarcoma cells stably transfected with the unspliced XBP-1-luciferase reporter construct (3000/well) were plated onto a solid white 384 well microplate with a multidrop dispenser (40 μL per well). The plates were then placed into an automated incubator. After 24 hours of growth, a mixture of tunicamycin (1 μg/ml) and thapsigargin (100 nM) inducers were added, and candidate compounds were then added to the plates. After 24 hours, luciferase reagent (10 μl) was added to each well and the plates were read in a Molecular Devices Analyst GT (0.2 second read per well).
As described above in Example 2, HT1080 fibrosarcoma cells stably expressing the XBP-luciferase reporter were plated in a 384 well microplate (4000 cells/well). After 24 hours, cells were treated with a mixture of tunicamycin (4 μg/ml) and thapsigargin (0.4 μM), followed by the addition of one compound per well (10 μM). We screened a total of 66,000 diverse molecules obtained from Specs, Chembridge and ChemRX. Twenty-four hours post-induction, BriteGlo luciferase substrate (10 μl) was added to each well and the signal intensity determined in a plate reader (0.2 s read per well). […] We retested 431 compounds from the initial screen, and selected 58 compounds for additional analysis, including calculation of IC50 values and inhibition of a CMV-luciferase reporter.
A. XBP-luciferase reporter construct. Firefly luciferase was inserted downstream of the IRE1α splice site in human XBP-1 to enable the conditional translation of luciferase under ER stress in an IRE1α-dependent manner. B. Selective inhibition of the XBP-luciferase reporter by irestatin 9389. HT1080 human fibrosarcoma cells stably expressing the XBP-luciferase reporter or CMV-luciferase were cultured in the presence of Tm (4 μg/ml) and Tg (0.4 μM) and irestatin 9389 at the indicated concentrations. After 24 hours, luciferase activity was analyzed in an automated plate reader. For each cell line, values are expressed as the percent inhibition of the median for Tm/Tg-treated wells, corrected for background. C. Structure of irestatin 9389. D. XBP-luciferase reporter assay. HT1080 cells stably expressing the XBP-luciferase reporter were exposed to Tm (4 μg/ml) for 24 hours or hypoxia (0.1% oxygen) for 24 or 48 hours, in the presence of DMSO or irestatin 9389 (1 μM) as indicated. Values are expressed as the fold increases over uninduced levels. E. 5X-UPRE reporter assay. HT1080 cells were co-transfected with 5X-UPRE luciferase and SV40-beta-gal reporter plasmids, followed by exposure to Tm or hypoxia as in D. For each condition, luciferase activity is normalized to beta-galactosidase expression levels as an internal control for transfection efficiency. F. Western immunoblot analysis of XBP-1s. HT1080 cells were left untreated (lane 2) or exposed to Tm (4 μg/ml) for 20 hours in the presence of DMSO vehicle (lane 1) or the indicated irestatins (2 μM; lanes 3-6). Cell lysates were resolved by SDS-PAGE and immunoblotting using antisera specific for XBP-1s (top panel) or actin and GAPDH (bottom panel) as loading controls. […] HT1080 cells were treated with DMSO or exposed to irestatin 9389 (2 μM; lane 3) in normoxia (N) or under hypoxia for 24 hours (H 24; lanes 2,3). Cells were harvested, lysed, and analyzed by immunoblotting with antisera specific for HIF-1α (top), XBP-1s (middle) or actin (bottom). H. Northern blot analysis of XBP-1s transcription targets. Cells were exposed to Tm (4 μg/ml) or hypoxia for 24 hours (H 24) in the absence or presence of irestatin 9389 (2 μM). Total RNA was analyzed by Northern blotting using radiolabeled probes specific for P58^IPK or DER-1. Total rRNA is shown as loading control.
As described above, a HT1080 fibrosarcoma cell line stably expressing a fusion of unprocessed XBP-1 inserted upstream of firefly luciferase has been developed to identify small molecule inhibitors of the IRE1α/XBP-1 signaling module. […]

XBP-1 splicing = experiment: Bioluminescence imaging of XBP-1 splicing in HT1080 XBP-1s-luciferase tumors in nude mice; format: in vivo; settings: IP, 50 mg/kg
Procedure: Several nude mice were implanted with HT1080 cells stably expressing a XBP-1s-luciferase construct and XBP-1 activation was examined using bioluminescence imaging. Imaging was performed using the In Vivo Imaging System (IVIS, Xenogen Corporation, Alameda, Calif.) in the Stanford Center for Innovation in In Vivo Imaging (SCI3). This device consists of a cooled CCD camera mounted on a light-tight specimen chamber. In these experiments, two different potential irestatins (3281 & 5500) were injected IP into nude mice implanted with HT1080 stably expressing XBP1s-luciferase (described in FIG. 2A).
As shown in FIGS. 9A-D, XBP-1 splicing activity was undetectable 8 hrs after irestatin 3281 injection and became detectable within 16 hrs later.

[2] = 24 h, inhibition of XBP1-luciferase reporter, read-out: Activity Class
[3] = HTS, Conc 10 uM, read-out: % Inh

| SMILES | inhibition at 10 µM [1, 2] [%] | inhibition at 10 µM [1, 3] [%] | other results |
| --- | --- | --- | --- |
| COCc1cc(C)nc(SCC(=O)Nc2nc(-c3ccc(Br)cc3)cs2)c1C#N [Compound 0040] | < 10 | -4.6 | – |
| N#Cc1c(C(F)(F)F)cc(-c2ccncc2)nc1SCC(=O)Nc1nccs1 [Compound 0069] | < 10 | -5.4 | – |
| CC(=O)N1CCc2nc3sc(C(=O)Nc4cccc(C#N)c4)c(N)c3c(C(F)(F)F)c2C1 [Compound 1491] | 10 to 30 | – | – |
| Nc1c(C(=O)Nc2ccccn2)sc2nc(-c3cccs3)cc(C(F)(F)F)c12 [Compound 1567] | < 10 | -41.2 | – |
| COc1ccc(CNC(=O)c2sc3nc4c(c(C(F)(F)F)c3c2N)CCC4)cc1 [Compound 1740] | 10 to 30 | – | – |
| COc1ccc(CNC(=O)c2sc3nc4c(c(C(F)(F)F)c3c2N)CCC4)cc1OC [Compound 2399] | 10 to 30 | 13.3 | – |
| Cc1cccc(NC(=O)c2sc3nc(C)cc(C(F)(F)F)c3c2N)n1 [Compound 2750] | 10 to 30 | 11.7 | – |
| CC(=O)C1=C(C)NC(SCC(=O)Nc2nc3ccccc3s2)=C(C#N)C1c1cccnc1 (stereo not shown) [Compound 2853] | 10 to 30 | 26.5 | – |
| Cc1cc(C(F)(F)F)c2c(N)c(C(=O)Nc3cccc(C(F)(F)F)c3)sc2n1 [Compound 3290] | < 10 | -30.3 | – |
| N#Cc1cc2c(nc1SCC(=O)Nc1nccs1)CCC2 [Compound 3371] | – | – | inhibition at 20 µM ([1]; IRE IC50 assay): 72.6%; IC50 ([1]; IRE IC50 assay, each value a separate calculation, estimate, not accurate below 10 nM, read-out: IC50): 13.9 µM |
| N#Cc1cc2c(nc1SCC(=O)Nc1nccs1)CCCCC2 [Compound 3398] | < 10 | -56.2 | – |
| Cc1csc(NC(=O)c2sc3nc4c(c(C(F)(F)F)c3c2N)CCCC4)n1 [Compound 4335] | 30 to 75 | – | inhibition at 12 µM ([1]; IRE IC50 assay, Conc 12 uM): 70.4%; inhibition at 20 µM ([1]; IRE IC50 assay): 67.4% |
| N#Cc1c(C(F)(F)F)cc(-c2cccs2)nc1SCC(=O)Nc1ccccn1 [Compound 4645] | < 10 | -8.3 | – |
| COc1ccccc1NC(=O)CSc1nc2c(c(C(F)(F)F)c1C#N)CCC2 [Compound 4950] | < 10 | -6.2 | – |
| Cc1csc(NC(=O)c2sc3nc4c(c(C(F)(F)F)c3c2N)CCC4)n1 [Compound 5500] | 75 to 100 | – | inhibition at 20 µM ([1]; IRE IC50 assay): 100%; effect on XBP-1 splicing at the time points assayed (XBP-1 splicing): did not have any affect on XBP-1 splicing; toxicity (XBP-1 splicing): no apparent toxicity |
| N#Cc1sc2nc(-c3cccs3)cc(C(F)(F)F)c2c1N [Compound 6068] | < 10 | – | inhibition at 12.3 µM ([1]; HTS, Conc 12.3 uM): 5.8% |
| N#Cc1c(C(F)(F)F)cc(-c2ccccc2)nc1SCC(=O)Nc1nccs1 [Compound 6392] | < 10 | 2.7 | – |
| N#Cc1c(C(F)(F)F)cc(-c2cccs2)nc1SCC(=O)Nc1nccs1 [Compound 6451] | < 10 | -55.6 | – |
| Cc1cc(C(F)(F)F)c(C#N)c(SCC(=O)Nc2nccs2)n1 [Compound 8233] | < 10 | -59.6 | – |
| N#Cc1cccc(NC(=O)c2sc3nc4c(c(C(F)(F)F)c3c2N)CCC4)c1 [Compound 8878] | 30 to 75 | – | – |
| CCN(CC)C(=O)CSc1nc2c(c(C(F)(F)F)c1C#N)CCC2 [Compound 8920] | 10 to 30 | 25.7 | – |
| N#Cc1c(C(F)(F)F)cc(-c2cccs2)nc1SCC(=O)Nc1ccc(C(N)=O)cc1 [Compound 9165] | < 10 | -6.5 | – |
| COc1ccc(NC(=O)CSc2nc3c(c(C(F)(F)F)c2C#N)CCC3)c(OC)c1 [Compound 9388] | < 10 | -40.8 | – |
| COCc1cc(C)nc(SCC(=O)Nc2nc(-c3ccc(C)cc3)cs2)c1C#N [Compound 9668] | 10 to 30 | 19 | – |
| COCc1cc(C)nc(SCC(=O)Nc2nc(-c3ccccc3)c(C)s2)c1C#N [Compound 9766] | 10 to 30 | 26.7 | – |
| COCc1cc(C)nc(SCC(=O)Nc2nc(-c3ccccc3)cs2)c1C#N [Compound 9787] | < 10 | -122 | – |
